Consider 37 compounds from US20240262812A1, “N-SUBSTITUTED PHENYLSULFONAMIDE COMPOUND AND USE THEREOF” (Shanghai Leado Pharmatech Co., Ltd., priority 2021, published 2024).

In the test the target is T1, mTRPA1 (Mus musculus, UniProt Q8BLA8).
T1 construct: expressed in transfected cells
T1 sequence (Q8BLA8 whole entry): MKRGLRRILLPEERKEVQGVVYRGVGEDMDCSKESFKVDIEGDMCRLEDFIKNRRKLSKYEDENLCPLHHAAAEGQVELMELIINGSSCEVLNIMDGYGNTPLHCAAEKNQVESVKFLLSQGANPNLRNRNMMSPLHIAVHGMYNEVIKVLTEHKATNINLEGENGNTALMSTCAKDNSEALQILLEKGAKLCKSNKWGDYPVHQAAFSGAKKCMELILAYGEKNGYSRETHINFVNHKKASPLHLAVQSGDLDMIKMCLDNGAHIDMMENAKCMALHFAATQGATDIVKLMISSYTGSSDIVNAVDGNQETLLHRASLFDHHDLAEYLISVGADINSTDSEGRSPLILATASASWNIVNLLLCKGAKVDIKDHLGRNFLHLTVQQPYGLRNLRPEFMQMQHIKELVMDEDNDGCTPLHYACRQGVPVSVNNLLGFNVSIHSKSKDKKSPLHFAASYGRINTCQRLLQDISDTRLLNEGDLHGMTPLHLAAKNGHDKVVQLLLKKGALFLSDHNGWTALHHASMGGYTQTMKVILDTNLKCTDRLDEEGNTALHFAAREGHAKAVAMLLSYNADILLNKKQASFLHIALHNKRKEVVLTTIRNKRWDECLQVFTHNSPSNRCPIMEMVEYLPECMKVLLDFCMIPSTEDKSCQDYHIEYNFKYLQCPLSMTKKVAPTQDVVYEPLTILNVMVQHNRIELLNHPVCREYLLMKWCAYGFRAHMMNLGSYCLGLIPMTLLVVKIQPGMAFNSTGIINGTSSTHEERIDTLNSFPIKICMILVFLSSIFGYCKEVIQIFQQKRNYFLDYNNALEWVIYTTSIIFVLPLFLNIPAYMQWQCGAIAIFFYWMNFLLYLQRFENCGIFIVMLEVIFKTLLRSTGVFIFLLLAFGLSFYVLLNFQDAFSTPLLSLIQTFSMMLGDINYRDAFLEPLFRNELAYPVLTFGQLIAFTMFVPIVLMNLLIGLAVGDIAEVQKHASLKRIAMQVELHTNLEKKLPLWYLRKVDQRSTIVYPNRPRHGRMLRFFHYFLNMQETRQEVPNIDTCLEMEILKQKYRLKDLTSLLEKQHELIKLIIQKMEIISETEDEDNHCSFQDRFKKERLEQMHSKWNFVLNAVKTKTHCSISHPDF
Nature of the test: IonWorks Barracuda (IWB) automated patch clamp, TRPA1 inhibitory activity. Type of test: cell-based. The conditions noted are these: HEK293 cells stably expressing mTRPA1, current induced by AITC, amplitude at +100 mV; read-out: IC50 (inhibition activity on TRPA1). As to the method: In this example, the inhibitory activity of the compounds prepared in some examples of the present invention on transient receptor potential channel protein ankyrin 1 (TRPA1) was tested. Among them, compound of formula A (WO2010075353) was used as the positive control compound: […]
Test method using IonWorks Barracuda (IWB) automated patch clamp detection: HEK293 cells stably expressing mTRPA1 were placed in the T175 culture flask with DMEM medium containing 15 µg/mL Blasticidin S HCl, 200 µg/mL Hygromycin B and 10% FBS, and cultured in 37° C., 5% CO2 incubator. When the cell density reached about 80%, the culture medium was removed, washed once with phosphate buffered saline (PBS) without calcium and magnesium. 3 mL of Trypsin was added to digest for 2 min, 7 mL of culture solution was added to terminate the digestion. The cells were collected to 15 mL centrifuge tube and centrifuged at 800 rpm for 3 min. After the supernatant was removed, the cells were added to appropriate volume of extracellular fluid for re-suspending, and the cell density was controlled at 2-3×10^6/mL for use in IWB experiment. Extracellular fluid formulation (in mM): 140 NaCl, 5 KCl, 1 MgCl2, 10 HEPES, 0.5 EGTA, 10 Glucose (pH 7.4); intracellular fluid formulation (in mM): 140 CsCl, 10 HEPES, 5 EGTA, 0.1 CaCl2, 1 MgCl2 (pH 7.2). 28 mg/mL of amphotericin B was freshly prepared with DMSO on the day of experiment, and then final concentration of 0.1 mg/mL was prepared with intracellular fluid.
Population patch clamp (PPC) plate was used in IWB experiment. The entire detection process was automatically carried out by the instrument, that is, extracellular fluid was added into 384 wells of PPC plate, and after intracellular fluid was added under PPC plate (in plenum), 6 µL of cell fluid was added for sealing test, and finally the intracellular fluid in plenum was replaced with intracellular fluid containing amphotericin B to establish a whole-cell recording mode after perforating sealed cells. The sampling frequency for recording TPRA1 current was 10 kHz, the cells were clamped at 0 mV, the voltage stimulation command (channel protocol) was a ramp voltage from −100 mV to +100 mV for 300 ms. This voltage stimulation was applied every 10 s, mTRPA1 current was induced by 300 µM AITC.
Data recording and current amplitude measurement export were carried out by IWB software (version 2.5.3, Molecular Devices Corporation, Union City, CA). No statistics was recorded for holes with sealing impedance lower than 20 MΩ. The original current data was corrected by software for leak subtraction. TRPA1 current amplitude was measured at +100 mV. […] If IC50 value of HC030031 exceeded 3 times of the average IC50 value previously obtained on each plate, it would be re-tested. The dose-effect curve of compounds and IC50 were fitted and calculated by GraphPad Prism 5.02 (GraphPad Software, San Diego, CA).
Some compounds of the present invention were subjected to IC50 inhibition activity test using the IonWorks Barracuda (IWB) automated patch clamp detection method.
Regarding `C[C@H]1CCCN1c1ccc(-c2csc(NC(=O)Cn3cnc4c3c(=O)n(C)c(=O)n4C)n2)cc1F` [Compound of formula A, reference compound], the 50% inhibitory concentration (IC50) fell in the range of 50 to 100 µM. As for `CNCc1ccc(-c2ccco2)c(NS(=O)(=O)c2ccccc2F)c1` [IA-2, 2-Fluoro-N-(2-(furan-2-yl)-5-((methylamino)methyl)phenyl)benzenesulfonamide], the half-inhibitory concentration (IC50) lay within 1 to 5 µM. The same measure for `CNCc1ccc(-c2ccco2)c(NS(=O)(=O)c2cccc(F)c2)c1` [IA-3, 3-Fluoro-N-(2-(furan-2-yl)-5-((methylamino)methyl)phenyl)benzenesulfonamide]: 1 to 5 µM; for `CNCc1ccc(-c2ccco2)c(NS(=O)(=O)c2ccccc2)c1` [IA-4, N-(2-(furan-2-yl)-5-((methylamino)methyl)phenyl)benzenesulfonamide]: 1 to 5 µM. As to `CNCc1ccc(-c2ccco2)c(NS(=O)(=O)c2ccc(OC)cc2)c1` [IA-6, 4-Methoxy-N-(2-(furan-2-yl)-5-((methylamino)methyl)phenyl)benzenesulfonamide], the IC50 fell in the range of 5 to 10 µM. As to `CNCc1ccc(-c2ccco2)c(NS(=O)(=O)c2ccc(Cl)cc2)c1` [IA-7], the IC50 lay in the range of 5 to 10 µM. Turning to `CNCc1ccc(-c2ccco2)c(NS(=O)(=O)c2ccccc2OC(F)(F)F)c1` [IA-8, 2-Trifluoromethoxy-N-(2-(furan-2-yl)-5-((methylamino)methyl)phenyl)benzenesulfonamide], the IC50 lay within 10 to 20 µM. The same measure for `CNCc1ccc(-c2ccco2)c(NS(=O)(=O)c2ccc(OC(F)(F)F)cc2)c1` [IA-9, 4-Trifluoromethoxy-N-(2-(furan-2-yl)-5-((methylamino)methyl)phenyl)benzenesulfonamide]: 20 to 50 µM; for `CNCc1ccc(-c2ccco2)c(NS(=O)(=O)c2ccc(C)cc2)c1` [IA-10, 4-Methyl-N-(2-(furan-2-yl)-5-((methylamino)methyl)phenyl)benzenesulfonamide]: 1 to 5 µM; for `CNCc1ccc(-c2ccco2)c(NS(=O)(=O)c2c(F)cccc2F)c1` [IA-12, 2,6-Difluoro-N-(2-(furan-2-yl)-5-((methylamino)methyl)phenyl)benzenesulfonamide]: 5 to 10 µM. For the compound `CNCc1ccc(-c2ccco2)c(NS(=O)(=O)c2ccc(C(F)(F)F)cc2)c1` [IA-13, 4-Trifluoromethyl-N-(2-(furan-2-yl)-5-((methylamino)methyl)phenyl)benzenesulfonamide], the IC50 was in the range of 10 to 20 µM. With `CNCc1ccc(-c2ccco2)c(NS(=O)(=O)c2ccc3ccccc3c2)c1` [IA-14, N-(2-(furan-2-yl)-5-((methylamino)methyl)phenyl)naphthalene-2-sulfonamide], the 50% inhibitory concentration (IC50) lay in the range of 50 to 100 µM. With `CNCc1ccc(-c2ccco2)c(NS(=O)(=O)c2ccc3ncsc3c2)c1` [IA-16, N-(2-(furan-2-yl)-5-((methylamino)methyl)phenyl)benzothiazole-6-sulfonamide], the half-maximal inhibitory concentration (IC50) was in the range of 5 to 10 µM. Regarding `CNCc1ccc(-c2ccco2)c(NS(=O)(=O)c2cccnc2)c1` [IA-17, N-(2-(furan-2-yl)-5-((methylamino)methyl)phenyl)pyridine-3-sulfonamide], the concentration for half-maximal inhibition (IC50) was in the range of 5 to 10 µM. On to `CNCc1ccc(-c2ccco2)c(NS(=O)(=O)c2ccc(Cl)nc2)c1` [IA-18, 6-Chloro-N-(2-(furan-2-yl)-5-((methylamino)methyl)phenyl)pyridine-3-sulfonamide], for which the IC50 was 10 to 20 µM. For the compound `CNCc1ccc(-c2ccco2)c(NS(=O)(=O)c2cccs2)c1` [IA-20, N-(2-(furan-2-yl)-5-((methylamino)methyl)phenyl)thiophene-2-sulfonamide], the half-maximal inhibitory concentration (IC50) was 1 to 5 µM. Consider `CNCc1ccc(-c2ccco2)c(NS(=O)(=O)c2ccc(Cl)s2)c1` [IA-22, 5-Chloro-N-(2-(furan-2-yl)-5-((methylamino)methyl)phenyl)thiophene-2-sulfonamide], for which the IC50 fell in the range of 20 to 50 µM. To `CNCc1ccc(-c2ccco2)c(NS(=O)(=O)c2ccc(Br)s2)c1` [IA-23, 5-Bromo-N-(2-(furan-2-yl)-5-((methylamino)methyl)phenyl)thiophene-2-sulfonamide] belongs 10 to 20 µM. Regarding `CNCc1ccc(-c2ccco2)c(NS(=O)(=O)Cc2ccccc2)c1` [IA-24, N-(2-(furan-2-yl)-5-((methylamino)methyl)phenyl)-1-phenylmethanesulfonamide], the IC50 lay in the range of 20 to 50 µM. As for `O=S(=O)(Nc1cc(CNCC(F)(F)F)ccc1-c1ccco1)c1ccccc1` [IA-25], the IC50 fell in the range of 20 to 50 µM. On to `CNCc1ccc(NS(=O)(=O)c2ccccc2)c(-c2ccco2)c1` [IA-26, N-(2-(furan-2-yl)-4-((methylaamino)methyl)phenyl)benzenesulfonamide], for which the IC50 lay in the range of 1 to 5 µM. To `CNCc1ccc(NS(=O)(=O)c2ccc(F)cc2)c(-c2ccco2)c1` [IA-27, 4-Fluoro-N-(2-(furan-2-yl)-4-((methylamino)methyl)phenyl)benzenesulfonamide] belongs 1 to 5 µM; to `CNCc1ccc(NS(=O)(=O)c2ccccc2F)c(-c2ccco2)c1` [IA-28, 2-Fluoro-N-(2-(furan-2-yl)-4-((methylamino)methyl)phenyl)benzenesulfonamide], 1 to 5 µM; to `CNCc1ccc(NS(=O)(=O)c2cccs2)c(-c2ccco2)c1` [IA-29, N-(2-(furan-2-yl)-4-((methylamino)methyl)phenyl)thiophene-2-sulfonamide], below 1 µM. As to `CNCc1ccc(NS(=O)(=O)c2cccnc2)c(-c2ccco2)c1` [IA-31, N-(2-(furan-2-yl)-4-((methylamino)methyl)phenyl)pyridine-3-sulfonamide], the IC50 lay in the range of 5 to 10 µM. In the case of `CCNCc1ccc(NS(=O)(=O)c2ccsc2)c(-c2ccco2)c1` [IA-32, N-(4-((ethylamino)methyl)-2-(furan-2-yl)phenyl)thiophene-3-sulfonamide], the IC50 is below 1 µM. Regarding `O=S(=O)(Nc1ccc(CNC2CCC2)cc1-c1ccco1)c1ccsc1` [IA-34, N-(4-((cyclobutylamino)methyl)-2-(furan-2-yl)phenyl)thiophene-3-sulfonamide], the half-inhibitory concentration (IC50) lay in the range of 1 to 5 µM. Take `CNCc1ccc(NS(=O)(=O)c2ccccc2)cc1-c1ccco1` [IA-36, N-(3-(furan-2-yl)-4-((methylamino)methyl)phenyl)benzenesulfonamide]: the IC50 is 20 to 50 µM. For `CNCc1cc(NS(=O)(=O)c2ccccc2)cc(-c2ccco2)c1` [IA-39, N-(3-(furan-2-yl)-5-((methylamino)methyl)phenyl)benzenesulfonamide], the IC50 fell in the range of 20 to 50 µM.

As for `CNCc1ccc(-c2ccco2)cc1NS(=O)(=O)c1ccccc1` [IA-40, N-(5-(furan-2-yl)-2-((methylamino)methyl)phenyl)benzenesulfonamide], the concentration for half-maximal inhibition (IC50) fell in the range of 50 to 100 µM. For `CNCc1ccc(-c2ccoc2)c(NS(=O)(=O)c2ccc(F)cc2)c1` [IA-41, 4-Fluoro-N-(2-(furan-3-yl)-5-((methylamino)methyl)phenyl)benzenesulfonamide], the IC50 is 5 to 10 µM. As for `CNCc1ccc(-c2ccoc2)c(NS(=O)(=O)c2ccccc2)c1` [IA-42, N-(2-(furan-3-yl)-5-((methylamino)methyl)phenyl)benzenesulfonamide], the IC50 was in the range of 1 to 5 µM. In the case of `CNCc1ccc(-c2cccs2)c(NS(=O)(=O)c2ccccc2)c1` [IA-46, N-(2-(thiophene-2-yl)-5-((methylamino)methyl)phenyl)benzenesulfonamide], the IC50 was in the range of 1 to 5 µM.

Take `CNCc1ccc(-c2cccs2)c(NS(=O)(=O)c2cccs2)c1` [IA-47, N-(2-(thiophene-2-yl)-5-((methylamino)methyl)phenyl)thiophene-2-sulfonamide]: the concentration for half-maximal inhibition (IC50) lay within 1 to 5 µM. For `CNCc1ccc(-c2cccs2)c(NS(=O)(=O)c2ccsc2)c1` [IA-48, N-(2-(thiophene-2-yl)-5-((methylamino)methyl)phenyl)thiophene-3-sulfonamide], the IC50 was 1 to 5 µM. For `CNCc1ccc(-c2ccc[nH]2)c(NS(=O)(=O)c2ccccc2)c1` [IA-50, N-(5-((methylamino)methyl)-2-(1H-pyrrole-2-yl)phenyl)benzenesulfonamide], the IC50 fell in the range of 20 to 50 µM. As to `CNCc1ccc(-c2cn[nH]c2)c(NS(=O)(=O)c2ccccc2)c1` [IA-52], the IC50 was in the range of 20 to 50 µM.
